Source: US9365540B2, “Benzimidazole derivatives as MCH receptor antagonists” (Takeda Pharmaceutical Company Limited, priority 2012, dated 2016)
Counter-ions that a name gives are not always drawn. Like-named read-outs stand apart in the source and are kept apart here.

How the values were obtained:
[1] = biological target: T1, human MCHR1 (Homo sapiens, UniProt Q99705); test: MCH receptor 1 antagonistic activity, Ca2+ mobilization assay; assay type: cell-based; settings: for inhibition at 0.1 µM: CHO, read-out: Inhibitory rate % (0.1 μM); for Inhibitory rate % (0.1 μM): hydrochloride
T1 construct: expressed in transfected cells; host or cells: CHO dhfr- cells, clone #4
T1 sequence (Q99705 whole entry): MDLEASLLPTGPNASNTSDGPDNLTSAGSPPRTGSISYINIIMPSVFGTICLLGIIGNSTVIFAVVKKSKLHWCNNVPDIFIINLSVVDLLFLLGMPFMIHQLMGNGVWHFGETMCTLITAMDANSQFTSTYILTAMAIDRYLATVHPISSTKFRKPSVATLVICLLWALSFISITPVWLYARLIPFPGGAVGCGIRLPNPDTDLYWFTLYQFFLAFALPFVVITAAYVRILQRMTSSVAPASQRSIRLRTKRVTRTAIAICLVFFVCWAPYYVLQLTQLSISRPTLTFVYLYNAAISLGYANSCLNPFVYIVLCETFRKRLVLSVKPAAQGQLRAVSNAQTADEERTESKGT
Description: Measurement of MCH Receptor 1 Antagonistic Activity of Test Compound Using Ca^2+ Mobilization Assay Using an expression vector plasmid introduced with human MCHR1 gene for expression in animal cells, human MCHR1 gene was introduced into CHO cells (CHO dhfr^−) by Lipofectamine LTX (Invitrogen). The cells were cultured in selection MEMα medium [445 mL of MEMα medium without nucleic acid and added with 5 mL of Penicillin-Streptomycin (Invitrogen) and 50 mL of dialyzed fetal bovine serum]. Colony 24 clones grown in the selection medium, which were human MCHR1 gene-expressing CHO cell candidates, were selected. […] In the following test, this human MCHR1-expressing CHO cell (clone #4) was used. An integrated dispensing function fluorometer (CellLux, PerkinElmer) was used for Ca^2+ mobilization assay. […] The medium was removed, and the cells were washed with phosphate buffered saline (PBS). […] The plate was set on a plate reader. […] The inhibition rates (%) of test compounds (0.1 μM) as antagonist activity measured using human MCHR1-expressing CHO cells (clone #4) are shown in the following Table 3.

[2] = biological target: T2, human MCH receptor 1 (MCHR1) (Homo sapiens, UniProt Q99705); test: human MCH receptor 1 (MCHR1) competitive binding assay with [125I]-MCH(4-19); settings: test compound 0.1 μM, human MCHR1-expressing CHO cell membrane fraction; for inhibition at 0.1 µM: read-out: Binding inhibition rate % (0.1 μM)
T2 construct: expressed in transfected cells; host or cells: CHO cell clone 57 (membrane fraction)
T2 sequence (Q99705 whole entry): as above
Summary of the method: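 Membranes from CHO cells expressing human MCHR1 incubated with [125I]-MCH(4-19) and test compound in 20 mM Tris-HCl pH 7.5/5 mM EDTA with protease inhibitors, 1 hr at room temperature. Bound radioactivity collected on PEI-treated GF/C filters; % inhibition at 0.1 μM compound, nonspecific binding set with cold MCH(1-19).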

[3] = test compound 0.1 μM, human MCHR1-expressing CHO cells (clone #4), ligand MCH(4-19) 2 nM

Row | Structure (SMILES) | inhibition at 0.1 µM [1, 3] | inhibition at 0.1 µM [2] | Inhibitory rate % (0.1 μM) [1, 3] | Binding inhibition rate % (0.1 μM) ([2]; hydrochloride, 0.1 µM) | inhibition at 0.1 µM [1]
1 | CCc1nc2ccc(-n3ccc(OCc4csc(F)c4)cc3=O)cc2n1C [Example 231, 1-(2-Ethyl-1-methyl-1H-benzimidazol-6-yl)-4-((5-fluoro-3-thienyl)methoxy)pyridin-2(1H)-one] | 95% | 71% | – | – | –
2 | CCc1nc2ccc(-n3ccc(OCc4ccsc4)cc3=O)cc2n1C [Example 235, 1-(2-Ethyl-1-methyl-1H-benzimidazol-6-yl)-4-(3-thienylmethoxy)pyridin-2(1H)-one] | 93% | 69% | – | – | –
3 | CCc1nc2ccc(-n3ccc(OCc4cc(Cl)cs4)cc3=O)cc2n1C [Example 236, 4-((4-Chlorothiophen-2-yl)methoxy)-1-(2-ethyl-1-methyl-1H-benzimidazol-6-yl)pyridin-2(1H)-one] | 96% | 76% | – | – | –
4 | Cn1c(C2CC2C#N)nc2ccc(-n3ccc(OCc4ccc(Cl)cc4)cc3=O)cc21 (stereo not drawn) [Example 237, (1R*,2S*)-2-(6-(4-((4-Chlorobenzyl)oxy)-2-oxopyridin-1(2H)-yl)-1-methyl-1H-benzimidazol-2-yl)cyclopropanecarbonitrile hydrochloride] | – | 78% | 67% | – | –
5 | Cn1c(C2CC2C#N)nc2ccc(-n3ccc(OCc4ccc(Cl)cc4)cc3=O)cc21 (stereo not drawn) [Example 238, (1R*,2S*)-2-(6-(4-((4-Chlorobenzyl)oxy)-2-oxopyridin-1(2H)-yl)-1-methyl-1H-benzimidazol-2-yl)cyclopropanecarbonitrile hydrochloride] | – | – | 42% | 65% | –
6 | Cn1c(C2CC2)nc2ccc(-n3ccc(OCc4cc(F)c(F)s4)cc3=O)cc21 [Example 239, 1-(2-Cyclopropyl-1-methyl-1H-benzimidazol-6-yl)-4-((4,5-difluoro-2-thienyl)methoxy)pyridin-2(1H)-one] | 92% | 74% | – | – | –
7 | Cn1c(C2CC2)nc2ccc(-n3ccc(OCc4cc(Br)cs4)cc3=O)cc21 [Example 240, 4-((4-Bromo-2-thienyl)methoxy)-1-(2-cyclopropyl-1-methyl-1H-benzimidazol-6-yl)pyridin-2(1H)-one] | 99% | 91% | – | – | –
8 | Cn1c(C2CC2)nc2ccc(-n3ccc(OCc4ccc(C(F)(F)F)o4)cc3=O)cc21 [Example 241, 1-(2-Cyclopropyl-1-methyl-1H-benzimidazol-6-yl)-4-((5-(trifluoromethyl)-2-furyl)methoxy)pyridin-2(1H)-one] | 76% | 56% | – | – | –
9 | Cn1c(C2CC2)nc2ccc(-n3ccc(COc4ccc(F)cc4)cc3=O)cc21 [Example 243, 1-(2-Cyclopropyl-1-methyl-1H-benzimidazol-6-yl)-4-((4-fluorophenoxy)methyl)pyridin-2(1H)-one] | 72% | 38% | – | – | –
10 | Cn1c(C2CC2)nc2ccc(-n3ccc(OCc4cc(Br)c(F)s4)cc3=O)cc21 [Example 244, 4-((4-Bromo-5-fluoro-2-thienyl)methoxy)-1-(2-cyclopropyl-1-methyl-1H-benzimidazol-6-yl)pyridin-2(1H)-one] | 98% | 83% | – | – | –
11 | Cn1c(C2CC2)nc2ccc(-n3ccc(COc4ccc(Cl)cc4)cc3=O)cc21 [Example 245, 4-((4-Chlorophenoxy)methyl)-1-(2-cyclopropyl-1-methyl-1H-benzimidazol-6-yl)pyridin-2(1H)-one] | 58% | 59% | – | – | –
12 | Cn1c(C2CC2)nc2ccc(-n3ccc(OCc4ccc(C(F)F)s4)cc3=O)cc21 [Example 248, 1-(2-Cyclopropyl-1-methyl-1H-benzimidazol-6-yl)-4-((5-(difluoromethyl)-2-thienyl)methoxy)pyridin-2(1H)-one] | 97% | 79% | – | – | –
13 | Cn1c(C2CC2)nc2ccc(-n3ccc(OCc4csc(Br)c4)cc3=O)cc21 [Example 250, 4-((5-Bromo-3-thienyl)methoxy)-1-(2-cyclopropyl-1-methyl-1H-benzimidazol-6-yl)pyridin-2(1H)-one] | 100% | 92% | – | – | –
14 | Cn1c(C2CC2)nc2ccc(-n3ccc(OCc4nc(C(F)(F)F)cs4)cc3=O)cc21 [Example 256, 1-(2-Cyclopropyl-1-methyl-1H-benzimidazol-6-yl)-4-((4-(trifluoromethyl)-1,3-thiazol-2-yl)methoxy)pyridin-2(^1H)-one] | 97% | 70% | – | – | –
15 | Cn1c(C2CC2)nc2ccc(-n3ccc(OCc4ccc(Br)o4)cc3=O)cc21 [Example 259, 4-((5-Bromo-2-furyl)methoxy)-1-(2-cyclopropyl-1-methyl-1H-benzimidazol-6-yl)pyridin-2(1H)-one] | 100% | 70% | – | – | –
16 | Cn1c(C2CC2)nc2ccc(-n3ccc(OCc4ccc(Br)cn4)cc3=O)cc21 [Example 260, 4-((5-Bromopyridin-2-yl)methoxy)-1-(2-cyclopropyl-1-methyl-1H-benzimidazol-6-yl)pyridin-2(1H)-one] | 104% | 75% | – | – | –
17 | CCc1nc2ccc(-n3ccc(OCc4nc(C(F)(F)F)cs4)cc3=O)cc2n1C [Example 261, 1-(2-Ethyl-1-methyl-1H-benzimidazol-6-yl)-4-((4-(trifluoromethyl)-1,3-thiazol-2-yl)methoxy)pyridin-2(1H)-one] | 100% | 57% | – | – | –
18 | Cn1c(C2CC2)nc2ccc(-n3ccc(OCc4coc(Br)c4)cc3=O)cc21 [Example 262, 4-((5-Bromo-3-furyl)methoxy)-1-(2-cyclopropyl-1-methyl-1H-benzimidazol-6-yl)pyridin-2(1H)-one] | 98% | 80% | – | – | –
19 | Cc1c(C2CC2)nc2ccc(-n3ccc(OCc4ccccn4)cc3=O)cn12 [Example 263, 1-(2-Cyclopropyl-3-methylimidazo[1,2-a]pyridin-6-yl)-4-(pyridin-2-ylmethoxy)pyridin-2(1H)-one hydrochloride] | – | 30% | – | – | 52%

More lines, main results first:

Row | inhibition at 0.1 µM [1, 3] | inhibition at 0.1 µM [2] | Inhibitory rate % (0.1 μM) [1, 3] | Binding inhibition rate % (0.1 μM) ([2]; hydrochloride, 0.1 µM) | Structure (SMILES) | inhibition at 0.1 µM [1]
20 | 97% | 61% | – | – | CCc1nc2ccc(-n3ccc(OCc4csc(C(F)(F)F)c4)cc3=O)cc2n1C [Example 265, 1-(2-Ethyl-1-methyl-1H-benzimidazol-6-yl)-4-((5-(trifluoromethyl)-3-thienyl)methoxy)pyridin-2(1H)-one] | –
21 | 86% | 66% | – | – | Cc1csc(COc2ccn(-c3ccc4nc(C5CC5)n(C)c4c3)c(=O)c2)n1 [Example 268, 1-(2-Cyclopropyl-1-methyl-1H-benzimidazol-6-yl)-4-((4-methyl-1,3-thiazol-2-yl)methoxy)pyridin-2(1H)-one] | –
22 | 73% | 58% | – | – | Cn1c(C2CC2)nc2ccc(-n3ccc(OCc4nc(CF)cs4)cc3=O)cc21 [Example 270, 1-(2-Cyclopropyl-1-methyl-1H-benzimidazol-6-yl)-4-((4-(fluoromethyl)-1,3-thiazol-2-yl)methoxy)pyridin-2(1H)-one] | –
23 | 77% | 55% | – | – | Cn1c(C2CC2)nc2ccc(-n3ccc(OCc4nc(C5CC5)cs4)cc3=O)cc21 [Example 277, 1-(2-Cyclopropyl-1-methyl-1H-benzimidazol-6-yl)-4-((4-cyclopropyl-1,3-thiazol-2-yl)methoxy)pyridin-2(1H)-one] | –
24 | 99% | 56% | – | – | Cn1c(C2CC2)nc2ccc(-n3ccc(OCc4nc(C(F)F)cs4)cc3=O)cc21 [Example 283, 1-(2-Cyclopropyl-1-methyl-1H-benzimidazol-6-yl)-4-((4-(difluoromethyl)-1,3-thiazol-2-yl)methoxy)pyridin-2(1H)-one] | –
25 | 83% | 37% | – | – | CCc1nc2ccc(-n3ccc(OCc4nc(C(F)F)cs4)cc3=O)cc2n1C [Example 284, 4-((4-(Difluoromethyl)-1,3-thiazol-2-yl)methoxy)-1-(2-ethyl-1-methyl-1H-benzimidazol-6-yl)pyridin-2(1H)-one] | –
26 | 58% | 36% | – | – | Cn1c(C2CC2)nc2ccc(-n3ccc(OCc4csc(C5CC5)n4)cc3=O)cc21 [Example 285, 1-(2-Cyclopropyl-1-methyl-1H-benzimidazol-6-yl)-4-((2-cyclopropyl-1,3-thiazol-4-yl)methoxy)pyridin-2(1H)-one] | –
27 | 100% | 58% | – | – | Cc1nc2ccc(-n3ccc(OCc4cc(C(F)(F)F)cs4)cc3=O)cc2n1C [Example 286, 1-(1,2-Dimethyl-1H-benzimidazol-6-yl)-4-((4-(trifluoromethyl)thiophen-2-yl)methoxy)pyridin-2(1H)-one] | –
